Source: patent US8859235B2, “Methods in cell cultures, and related inventions, employing certain additives” (priority 2009, dated 2014)

What was measured:
E. coli JM109 [1] = test: Growth and GFPuv expression in E. coli JM109, shake flask cultivation in mineral medium; format: cell-based, Escherichia coli; settings: additive 5 mM, 20 h, mean of two
Protocol: Precultures are prepared in 250 mL baffled shake flasks containing 25 mL sterile mineral medium [macronutrients in g/L: Glycerol (25), (NH4)2-citrate (1.0), Na2HPO4 2H2O (9.0), KH2PO4 (1.82), NH4Cl (1.52), MgSO4 (0.12), (NH4)2SO4 (0.6); Ampicillin ([…]); micronutrients in mg/L: Na2-EDTA (8.4), thiamine (4.5), Fe(III) citrate (12.5), Na2MoO4 2×H2O (2.5), H3BO3 (3), CoCl2 6×H2O (2.5), CuSO4 5×H2O (0.45) MnCl24×H2O (15), ZnCl2 (8) adjusted to pH 7.0]. Cultures are inoculated with 250 μL of a glycerol stock stored at −80° C. of E. coli JM109 (Promega Inc, Wallisellen, C H; Genotype: endA1, recA1, gyrA96, thi, hsdR17 (rk^−, mk^+), re/A1, supE44, Δ(lac-proAB), [F″ traD36, proAB, laql^qZΔM15]) harboring the plasmid pBAD-GFPuv (Biorad Inc., Reinach, C H; Genbank U62637.1, containing the GFPuv gene under control of the ara promoter; GFP=Green Fluorescent Protein). Precultures are incubated at 37° C. for 10-12 h.
Experimental cultures are performed in a volume of 25 mL of the above described medium in 250 mL baffled shake flasks. Stabilizers according to the invention are added to a final concentration of 5 mM as indicated from sterile stock solutions. Cultures are started by inoculating with the preculture to an optical density at 600 nm (OD600) of 0.25. Growth of the culture is monitored by reading optical density at 600 nm. Cultures are induced by adding L-arabinose to a final concentration of 0.2% (w/v) when the OD600 reaches 0.5. Samples of 1 mL are taken 6 and 20 h after induction for OD600 reading and GFP quantification. For GFP quantification 1 mL of the culture is harvested after 2-4 h and after 20 h after induction. Cells are collected by centrifugation at 16 000 g and the cell pellet is stored at −20° C. for further analysis.
(§1) The measurement of GFP expression by whole cell fluorescence measurements follows the procedure of Scholz et al. (Eur. J. Biochem., 2000,267, 1565-1570). Frozen cell pellets are thawed, resuspended in 1 mL PBS [NaCl (8 g/L), KCl (0.2), of Na2HPO4 (1.44), KH2PO4 (0.24), adjusted to pH 7.4] and subsequently diluted to an optical density of 0.1. GFP fluorescence of whole cells is measured in a Eclipse Fluorometer (Varian) with an excitation wavelength of 400 nm and an emission wavelength of 512 nm. Specific relative fluorescence [RFU/OD600] is calculated by dividing the relative fluorescence emmision units by the optical density of the suspension at 600 nm.

E. coli JM109 [2] = test: Growth and GFP expression in high cell density fedbatch cultivation of E. coli JM109 in mineral medium; format: cell-based, Escherichia coli; settings: for Optical density Value / GFP expression (RFU/OD600) Value: additive 5 mM; for GFP expression Factor / Optical density Factor: relative to control = 1
Protocol: as §1
A first preculture of E. coli JM109 harboring the plasmid pBAD-GFPuv is initiated from glycerol stocks stored at −80° C. in 3 mL of LB medium containing 0.01% (v/v) Antifoam A (Fluka). After growth for 10-12 h it is used to seed 2×100 mL of mineral medium (as described in Example 1) containing 0.01% Antifoam A (silicone fluid containing a suspension of finely powdered silica to enhance its defoaming efficiency; Dow Corning Corporation, Midland, Mich., USA), in 1 L baffled shake flasks. After 10-12 h this culture is centrifuged resuspended in 50 mL mineral medium and is used to inoculate the main culture.
Cultivation is performed in BioFlow110 bioreactors (Total volume 2.2 L; New Brunswick Scientific, Nürtingen, Germany) filled with 1 L of mineral medium plus 0.01% (v/v) Antifoam A for the batch phase. Reactors are equipped with pH, pO2 and foam probes, mass flow controllers to control gas flow and ratio of air and pure oxygen and pumps for automated dosage of base (14% [v/v] aqueous NH3), antifoam (25% [v/v] Antifoam A) and nutrient feed solution. The agitation is set to 500 rpm and air is supplied at a gas flow rate of 2 L/min. The fedbatch culture is incoculated to an OD600 of 0.25-0.5 and allowed to grow unlimited with a specific growth rate of ˜0.5 h^−1. Growth is monitored by measuring OD600. When the disolved oxygen concentration decreases to 30%, automated adjustment of the air:oxygen ratio in the gas mix is started to control dO2 to 30% using a PID loop. When the gas mix consisted of 100% oxygen a further increase in oxygen transfer is achieved through increasing the agitation rate up to a maximum level of 1200 rpm. When glycerol in the batch medium is completely consumed, as indicated by a distinct drop of pure oxygen in the gas mix, feeding solutions (first containing 70 g/L glycerol and later as cell density increased 200 g/L glycerol in mineral medium) are pumped into the reactor by a predefined exponential fed scheme. The feeding rate is calculated to allow the cells to grow at a growth rate of approximately 0.15 h^−1. During the feeding phase dO2 is also kept at 30%. 3-6 h after starting the feeding protein expression is induced by the addition of 0.2 (w/v) L-arabinose. Samples are taken every hour for OD600 reading and to obtain cell pellets which are stored at −20° C. for further analysis. Analysis of in vivo GFP fluorescence is performed by the method described in Example 1.

E. coli BL21 = test: Growth and GFPuv expression in E. coli BL21 (DE3), shake flask batch culture in complex medium; format: cell-based, Escherichia coli
Protocol: as §1
Precultures are prepared in 250 mL baffled shake flasks containing 25 mL sterile LB medium [Tryptone (10.0 g/L), yeast extract (5.0), NaCl (10.0), kanamycin 30 (mg/L); adjusted to pH 7.0 with NaOH]. Cultures are inoculated with 250 μL of a glycerol stock stored at −80° C. of E. coli BL21 [Novagen, Madison, USA; Genotype: E ompT hsdSB (rB^− mB^−) gal dcm (DE3)] harboring the plasmid pET28a-GFPuv which is obtained by inserting the GFPuv gene (isolated from pBAD-GFPuv through PCR) into the EcoRI site of pET28a (Novagen, Madison, USA) which placed the GFPuv gene under the control of the T7/Lac promotor system. Precultures are incubated at 37° C. for 10-12 h.
Experimental cultures are performed in a volume of 25 mL of the above described medium in 250 mL baffled shake flasks. Stabilizers are added to a final concentration of 5 mM as indicated from sterile stock solutions. Cultures are started by inoculating with the preculture to an OD600 at 600 nm of 0.25. Samples are taken for OD600 measurements. Cultures are induced by adding IPTG (Isopropyl-β-D-thiogalactoside) to a final concentration of 0.5 mM when the OD600 reaches 0.5. Samples of 1 mL are taken after induction for OD600 reading and GFP quantification. For GFP quantification 1 mL of the culture is harvested after 2-4 h and after 20 h after induction. Cells are collected by centrifugation at 16 000 g and the cell pellet is stored at −20° C. for further analysis. Analysis of in vivo GFP fluorescence is performed by the method described in Example 1.

E. coli HM125 = test: Growth and expression of FimH-CRD in E. coli HM125, shake flask cultivation in mineral medium; format: cell-based, Escherichia coli; settings: for mg FimH/g cell: control 0.81; for FimH / Cell pellet: mean of triplicate; for FimH: control 6.48 ± 0.36; for Cell pellet: control 7.99 ± 0.25
Source text: Standard molecular techniques are used for the cloning of the FimH carbohydrate recognition domain (FimH-CRD). The plasmid pfimHs-trc, encoding FimH lectin domain (1-156 amino acids M. Vetsch P et. al. 2002—J. Mol. Biol. 322: 827-840), is kindly provided by R. Glockshuber (ETH Zürich, Switzerland). The FimH-CRD fragment is amplified by polymerase chain reaction using specific forward primer containing the restriction site NdeI and a specific reverse primer containing the thrombin cleavage site and the restriction site XhoI, respectively. The insert is ligated into the corresponding cloning site in pET21b. The resulting contrast is named pET21b-FimH-CRD.
Precultures are prepared in 25 mL sterile LB medium [Tryptone (10.0 g/L), yeast extract (5.0 g/L), NaCl (10.0 g/L), ampicillin 100 (mg/L); adjusted to pH 7.0 with NaOH]. Cultures are inoculated with a glycerol stock stored at −80° C. of the protease deficient strain E. coli HM125 (Meerman H J & Georgiou G. 1994. Biotechnology (NY) 2, 1107-1110) harboring the plasmid pET21b-FimH-CRD Vector. Precultures are incubated at 37° C. for 10-12 h. Experimental cultures are performed in a volume of 500 mL of modified M9 medium [Na2HPO4×7H2O (12.8 g/L), KH2PO4 (3 g/L), NaCl (0.5 g/L), NH4Cl (1 g/L), D-glucose (4 g/L), MgSO4 (0.12 g/L), CaCl2 (0.01 g/L) and vitamins (in mg/L): riboflavin (0.1), choline chloride (1), folic Acid (1), niacinamide (1), p-amino benzoic acid (1), pyridoxal-HCl (1), thiamine-HCl (1), myo-lnositol (2)] supplemented with 100 mg/L ampicillin. Cultures are inoculated with 5 mL of the preoculture and grown at 30° C. and 150 rpm) until the optical density at 600 nm (0D600) reached 0.8-1.0. Then 1 mM IPTG and the stabilizer(s) (obligatory additive) according to the invention are added to final concentrations of 5, 10 and 20 mM as indicated from sterile stock solutions and the cultures are grown overnight. Then the cells are cooled on ice for 5 min and harvested by centrifugation at 5′000 rpm for 20 min at 4° C. Cell are harvested by centrifugation and biomass is quantified by weighing the wet cell pellets. The pellet is suspended in a cold solution of 50 mM Tris-HCl, pH 7.5, 150 mM NaCl, 5 mM EDTA, 1 mg/mL polymyxin B sulfate and stirred for two hours at 4° C. After centrifugation at 11′000 rpm for 20 min at 4° C., the supernatant (periplasmic extract) is dialyzed overnight against 50 mM NaH2PO4, 300 mM NaCl and 10 mM imidazole, pH 8 (binding buffer) and applied to a Ni-NTA column (Sigma, Buchs, Switzerland) attached to a BioLogic fast protein liquid chromatography system (BioRad, Reinach BL, Switzerland). The column is washed with binding buffer and afterwards eluted with 50 mM NaH2PO4, 300 mM NaCl and 250 mM imidazole, pH 8 (elution buffer). Fractions containing FimH-CRD-Th-6H is are pooled and dialyzed against water and then against 20 mM HEPES, 150 mM NaCl and 1 mM CaCl2, pH 7.4.
The concentration of protein is determined by HPLC method (Agilent 1100/1200 series) using BSA as standard (Sigma). The column Poros R1/10 10 μm (100×2 mm, Morvay Analytik) is kept at 60° C.; eluents are A: 0.1% trifluoroacetic acid (TFA) in H2O and B: 90% MeCN+0.09% TFA. A gradient of 20% B to 90% B is run within 20 min at a flow rate of 0.2 mL/min. The detection is monitored at 210 nm. Results are compiled in the following tables 5 and 6.

P. pastoris = settings: 4-10 mM in the medium; Xiao, Appl. Microbiol. Biotechnol. (2006); cited from earlier work
[3] = Experiment 6, process time 24.75 h
[4] = Experiment 7, process time 17 h

For `CC1(C)CC(O)CC(C)(C)N1` [4-Hydroxy-2,2,6,6-tetramethyl-piperidine], the “Growth (Final OD600)” value (E. coli JM109 [1]; Experiment 2, control 11.0) was 10.9 OD600, the “GFP expression (Relative fluorescence unit*OD600^−1)” value (E. coli JM109 [1]; Experiment 2, control 1423) was 1646 Relative fluorescence unit*OD600^−1 and the “Optical density Value” (E. coli JM109 [2]; Experiment 6, process time 24.75 h, control 10.3) was 24.7. For the same compound, the “GFP expression (RFU/OD600) Value” (E. coli JM109 [2]; Experiment 6, process time 24.75 h, control 1038) was 5507 RFU/OD600, the “GFP expression Factor” value (E. coli JM109 [2]; [3]) was 5.3 and the “Optical density Factor” value (E. coli JM109 [2]; [3]) was 2.39. For the same compound, the “Optical density Value” (E. coli JM109 [2]; Experiment 7, process time 17 h, control 56.4) was 57.1, the “GFP expression (RFU/OD600) Value” (E. coli JM109 [2]; Experiment 7, process time 17 h, control 5765) was 6438 RFU/OD600 and the “GFP expression Factor” value (E. coli JM109 [2]; [4]) was 1.12. The “Optical density Factor” value (E. coli JM109 [2]; [4]) was 1.01.
With “Tris(tetramethylhydroxypiperidinol) citrate” the “Growth (Final OD600)” value (E. coli JM109 [1]; Experiment 3, control 10.4) was 11.4 OD600 and the “GFP expression (Relative fluorescence unit*OD600^−1)” value (E. coli JM109 [1]; Experiment 3, control 1189) was 2675 Relative fluorescence unit*OD600^−1.
For `CC1(C)CC(O)CC(C)(C)N1O` [1,4-dihydroxy-2,2,6,6-tetramethylpiperidine], the “Growth (Final OD600)” value (E. coli BL21; Experiment 2, additive 5 mM, 20 h after induction, control 3.3) was 3.19 OD600, the “GFP expression (Relative fluorescence unit*OD600^−1)” value (E. coli BL21; Experiment 2, additive 5 mM, 20 h after induction, control 195) was 222 Relative fluorescence unit*OD600^−1 and the “Effect on GFPuv expression and growth, in words” value (E. coli BL21; comment on Table 2) was “shows at least some effect and is not detrimental”. For the same compound, the “mg FimH/g cell” value (E. coli HM125; additive 5 mM) was 1.1 mg FimH/g cell, the “FimH” value (E. coli HM125; additive 5 mM) was 9.1 ± 0.56 mg/L and the “Cell pellet” value (E. coli HM125; additive 5 mM) was 8.22 ± 0.35 g/L. The “mg FimH/g cell” value (E. coli HM125; additive 10 mM) was 1.22 mg FimH/g cell, the “FimH” value (E. coli HM125; additive 10 mM) was 9.59 ± 0.49 mg/L and the “Cell pellet” value (E. coli HM125; additive 10 mM) was 7.86 ± 0.25 g/L. For the same compound, the “mg FimH/g cell” value (E. coli HM125; additive 20 mM) was 1.26 mg FimH/g cell, the “FimH” value (E. coli HM125; additive 20 mM) was 10.08 ± 0.66 mg/L and the “Cell pellet” value (E. coli HM125; additive 20 mM) was 7.94 ± 0.33 g/L.
In the case of `O=C1O[C@H]([C@@H](O)CO)C(O)=C1O` [Ascorbic acid], the “Hirudin yield and quality” value (P. pastoris) is listed as “increased”.
